Assay [1] has as its target T1, HiBit-BRM fusion protein (Homo sapiens, UniProt P51531).
T1 construct: expressed in transfected cells
The experiment in a line: HiBiT-BRM cell-based degradation assay (Nano-Glo HiBiT Lytic Detection, 24 h). Particulars: HeLa cells expressing HiBiT-BRM; for DC50: read-out: BRM HiBit Degradation IC50; for BRM HiBit Degradation Maximum measured: top dose 30 μM. The gist of the method:
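Percent BRM loss was derived from HiBiT luminescence relative to DMSO-treated cells and cells given 2 μM of a known BRM/BRG1 degrader. Treatment lasted 24 h in HiBiT-BRM HeLa cells, with a top final concentration of 30 μM.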

In assay [2] the target is T2, HiBit-BRG1 fusion protein (Homo sapiens, UniProt P51532).
T2 construct: expressed in transfected cells
The experiment in a line: HiBiT-BRG1 cell-based degradation assay (Nano-Glo HiBiT Lytic Detection, 24 h). As to conditions: HeLa cells expressing HiBit-BRG1 and LgBit; for DC50: read-out: BRG1 HiBit Degradation IC50; for Dmax: HeLa, top dose 30 μM, read-out: BRG1 HiBit Degradation Maximum measured. The gist of the method: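 Degradation is scaled from DMSO-treated cells (0%) to cells given 2 μM of a known BRM/BRG1 degrader (100%). HeLa cells stably carrying HiBiT-BRG1 plus LgBiT (5000/well) were lysed with Nano-Glo HiBiT detection reagent, shaken 10 min at RT, and luminescence read.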
Background: With HiBiT, luminescence reflects the tagged protein that the partner subunit can reach.

Counter-ions that a name gives are not always drawn.

T1 sequence (P51531 whole entry, the tested form may be a part): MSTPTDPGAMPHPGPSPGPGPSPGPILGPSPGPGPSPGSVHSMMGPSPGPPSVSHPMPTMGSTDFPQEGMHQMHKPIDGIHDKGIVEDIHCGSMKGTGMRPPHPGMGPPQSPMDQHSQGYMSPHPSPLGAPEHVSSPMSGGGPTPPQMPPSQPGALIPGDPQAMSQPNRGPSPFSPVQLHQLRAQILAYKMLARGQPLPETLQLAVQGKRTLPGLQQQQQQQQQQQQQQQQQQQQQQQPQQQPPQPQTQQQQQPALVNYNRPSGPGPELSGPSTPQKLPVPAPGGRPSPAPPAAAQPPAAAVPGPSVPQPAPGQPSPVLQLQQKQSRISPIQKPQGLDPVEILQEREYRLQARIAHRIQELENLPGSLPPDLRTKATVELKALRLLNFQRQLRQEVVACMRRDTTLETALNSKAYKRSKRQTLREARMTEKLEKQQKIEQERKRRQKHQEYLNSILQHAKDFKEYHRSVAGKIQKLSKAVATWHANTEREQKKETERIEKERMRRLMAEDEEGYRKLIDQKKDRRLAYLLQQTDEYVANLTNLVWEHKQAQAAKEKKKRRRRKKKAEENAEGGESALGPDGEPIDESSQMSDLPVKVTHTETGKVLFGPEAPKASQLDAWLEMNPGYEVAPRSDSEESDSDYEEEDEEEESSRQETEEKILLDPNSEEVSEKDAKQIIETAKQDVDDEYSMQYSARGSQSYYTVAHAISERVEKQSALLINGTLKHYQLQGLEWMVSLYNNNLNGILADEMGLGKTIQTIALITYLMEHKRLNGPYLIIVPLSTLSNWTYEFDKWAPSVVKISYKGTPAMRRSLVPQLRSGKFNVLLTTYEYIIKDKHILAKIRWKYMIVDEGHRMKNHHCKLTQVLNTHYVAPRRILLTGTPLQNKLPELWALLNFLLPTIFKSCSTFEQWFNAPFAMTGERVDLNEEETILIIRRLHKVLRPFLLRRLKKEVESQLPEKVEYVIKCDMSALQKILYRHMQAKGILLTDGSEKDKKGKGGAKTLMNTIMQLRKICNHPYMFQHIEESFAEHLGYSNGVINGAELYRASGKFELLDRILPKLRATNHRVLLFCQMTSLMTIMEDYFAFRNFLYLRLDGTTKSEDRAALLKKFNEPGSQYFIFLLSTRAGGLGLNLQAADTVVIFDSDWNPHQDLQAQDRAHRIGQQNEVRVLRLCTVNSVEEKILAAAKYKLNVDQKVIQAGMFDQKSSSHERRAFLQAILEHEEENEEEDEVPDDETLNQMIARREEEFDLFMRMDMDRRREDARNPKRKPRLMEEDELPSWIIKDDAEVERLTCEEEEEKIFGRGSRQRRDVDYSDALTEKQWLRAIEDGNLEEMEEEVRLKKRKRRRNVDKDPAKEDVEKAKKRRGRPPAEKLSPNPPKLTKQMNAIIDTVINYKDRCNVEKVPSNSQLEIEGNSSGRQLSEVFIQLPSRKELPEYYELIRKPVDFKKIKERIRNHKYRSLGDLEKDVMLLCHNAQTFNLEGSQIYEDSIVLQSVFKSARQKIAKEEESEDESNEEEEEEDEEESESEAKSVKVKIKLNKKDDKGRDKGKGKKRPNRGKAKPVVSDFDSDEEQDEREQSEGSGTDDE
T2 sequence (P51532 whole entry, the tested form may be a part): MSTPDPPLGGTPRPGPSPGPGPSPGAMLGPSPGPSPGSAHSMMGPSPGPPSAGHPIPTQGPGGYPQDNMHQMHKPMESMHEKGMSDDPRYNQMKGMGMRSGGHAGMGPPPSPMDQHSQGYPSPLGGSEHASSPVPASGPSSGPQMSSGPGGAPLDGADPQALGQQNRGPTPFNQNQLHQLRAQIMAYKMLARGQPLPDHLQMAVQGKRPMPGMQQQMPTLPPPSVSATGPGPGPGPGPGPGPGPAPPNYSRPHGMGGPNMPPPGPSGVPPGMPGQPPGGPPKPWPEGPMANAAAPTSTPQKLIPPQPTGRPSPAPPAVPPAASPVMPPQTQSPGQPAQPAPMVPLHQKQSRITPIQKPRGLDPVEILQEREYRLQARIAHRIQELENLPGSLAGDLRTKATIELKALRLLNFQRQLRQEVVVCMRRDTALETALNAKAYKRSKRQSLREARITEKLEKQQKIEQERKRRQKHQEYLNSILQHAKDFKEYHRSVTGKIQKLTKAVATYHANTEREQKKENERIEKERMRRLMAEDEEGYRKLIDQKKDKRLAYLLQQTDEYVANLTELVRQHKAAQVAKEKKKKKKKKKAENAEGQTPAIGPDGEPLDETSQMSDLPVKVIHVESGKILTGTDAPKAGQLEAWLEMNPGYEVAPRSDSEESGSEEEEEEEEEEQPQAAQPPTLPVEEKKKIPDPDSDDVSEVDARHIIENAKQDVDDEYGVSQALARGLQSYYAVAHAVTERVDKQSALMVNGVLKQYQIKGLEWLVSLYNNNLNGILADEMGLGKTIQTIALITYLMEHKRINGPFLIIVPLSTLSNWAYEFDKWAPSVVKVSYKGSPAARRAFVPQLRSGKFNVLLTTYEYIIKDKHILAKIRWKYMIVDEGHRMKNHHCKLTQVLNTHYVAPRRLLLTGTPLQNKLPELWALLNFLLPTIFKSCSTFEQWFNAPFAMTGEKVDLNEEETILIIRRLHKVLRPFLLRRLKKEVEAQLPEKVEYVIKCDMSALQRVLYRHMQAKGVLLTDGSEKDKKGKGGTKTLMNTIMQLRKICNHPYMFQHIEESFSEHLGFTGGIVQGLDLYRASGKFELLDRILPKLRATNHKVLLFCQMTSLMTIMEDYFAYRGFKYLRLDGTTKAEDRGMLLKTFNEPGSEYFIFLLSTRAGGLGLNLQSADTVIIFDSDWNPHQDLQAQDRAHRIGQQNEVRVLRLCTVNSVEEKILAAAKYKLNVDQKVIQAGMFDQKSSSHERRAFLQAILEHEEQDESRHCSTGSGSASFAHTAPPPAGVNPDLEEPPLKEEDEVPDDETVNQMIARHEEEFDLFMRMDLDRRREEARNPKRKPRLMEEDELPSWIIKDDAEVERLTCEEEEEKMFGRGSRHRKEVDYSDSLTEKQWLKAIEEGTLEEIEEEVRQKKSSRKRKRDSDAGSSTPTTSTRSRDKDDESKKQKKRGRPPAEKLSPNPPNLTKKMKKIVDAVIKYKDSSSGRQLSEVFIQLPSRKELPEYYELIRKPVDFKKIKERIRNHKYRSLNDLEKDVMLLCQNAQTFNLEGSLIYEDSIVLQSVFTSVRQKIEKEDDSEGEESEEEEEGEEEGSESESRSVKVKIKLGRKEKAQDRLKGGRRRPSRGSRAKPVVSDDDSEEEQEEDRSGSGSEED

Take `Cc1ncsc1-c1ccc(CNC(=O)[C@@H]2C[C@@H](O)CN2C(=O)[C@@H](NC(=O)CCCCCCC(=O)NCc2cc(-c3cccc(-c4csc(NC(=O)CNC(=O)c5ccn(S(C)(=O)=O)c5)n4)c3)ccn2)C(C)(C)C)cc1` [Compound 142]: in assay [1], the DC50 was > 10 µM and the “BRM HiBit Degradation Maximum measured” value is listed as “C (‘C’ = Maximum degradation <50%)”. Further, in assay [2], the DC50 is > 10 µM and the Dmax was < 50%.

As for `CS(=O)(=O)n1ccc(C(=O)NCC(=O)Nc2nc(C3CCCN(C(=O)CCCCCCCCCCNc4ccc5c(c4)C(=O)N(C4CCC(=O)NC4=O)C5=O)C3)cs2)c1` (stereo not drawn) [Compound 143, N-{4-[1-(11-{[2-(2,6-dioxopiperidin-3-yl)-1,3-dioxo-2,3-dihydro-1H-isoindol-5-yl]amino}undecanoyl)piperidin-3-yl]-1,3-thiazol-2-yl}-2-[(1-methanesulfonyl-1H-pyrrol-3-yl)formamido]acetamide], in assay [1], the DC50 was > 10 µM and the “BRM HiBit Degradation Maximum measured” value is recorded as “C (‘C’ = Maximum degradation <50%)”. In addition, in assay [2], the DC50 is > 10 µM and the Dmax was < 50%.

For the molecule `CS(=O)(=O)n1ccc(C(=O)NCC(=O)Nc2nc(C3CCCN(C(=O)CCOCCOCCOc4ccc5c(c4)C(=O)N(C4CCC(=O)NC4=O)C5=O)C3)cs2)c1` (stereo not drawn) [Compound 144, N-[4-(1-{3-[2-(2-{[2-(2,6-dioxopiperidin-3-yl)-1,3-dioxo-2,3-dihydro-1H-isoindol-5-yl]oxy}ethoxy)ethoxy]propanoyl}piperidin-3-yl)-1,3-thiazol-2-yl]-2-[(1-methanesulfonyl-1H-pyrrol-3-yl)formamido]acetamide], in assay [1], the DC50 is > 10 µM and the “BRM HiBit Degradation Maximum measured” value was “C (‘C’ = Maximum degradation <50%)”. In assay [2], the DC50 was > 10 µM and the Dmax is < 50%.

`CS(=O)(=O)n1ccc(C(=O)NCC(=O)Nc2nc(C3CCCN(C(=O)C4CCN(CCOc5ccc6c(c5)C(=O)N(C5CCC(=O)NC5=O)C6=O)CC4)C3)cs2)c1` (stereo not drawn) [Compound 145, N-(4-{1-[1-(2-{[2-(2,6-dioxopiperidin-3-yl)-1,3-dioxo-2,3-dihydro-1H-isoindol-5-yl]oxy}ethyl)piperidine-4-carbonyl]piperidin-3-yl}-1,3-thiazol-2-yl)-2-[(1-methanesulfonyl-1H-pyrrol-3-yl)formamido]acetamide formate]: in assay [1], the DC50 is > 10 µM and the “BRM HiBit Degradation Maximum measured” value was “C (‘C’ = Maximum degradation <50%)”. In addition, in assay [2], the DC50 was > 10 µM and the Dmax was < 50%.

Consider `CS(=O)(=O)n1ccc(C(=O)NCC(=O)Nc2nc(C3CCCN(C(=O)CCN4CCN(c5ccc6c(c5)C(=O)N(C5CCC(=O)NC5=O)C6=O)CC4)C3)cs2)c1` (stereo not drawn) [Compound 146, N-{4-[1-(3-{4-[2-(2,6-dioxopiperidin-3-yl)-1,3-dioxo-2,3-dihydro-1H-isoindol-5-yl]piperazin-1-yl}propanoyl)piperidin-3-yl]-1,3-thiazol-2-yl}-2-[(1-methanesulfonyl-1H-pyrrol-3-yl)formamido]acetamide formate], for which, in assay [1], the DC50 is > 10 µM and the “BRM HiBit Degradation Maximum measured” value is given as “C (‘C’ = Maximum degradation <50%)”. Also, in assay [2], the DC50 was > 10 µM and the Dmax was < 50%.

Consider `CS(=O)(=O)n1ccc(C(=O)NCC(=O)Nc2nc(C3CCCN(C(=O)CCCCOc4cccc5c4C(=O)N(C4CCC(=O)NC4=O)C5=O)C3)cs2)c1` (stereo not drawn) [Compound 147, N-{4-[1-(5-{[2-(2,6-dioxopiperidin-3-yl)-1,3-dioxo-2,3-dihydro-1H-isoindol-4-yl]oxy}pentanoyl)piperidin-3-yl]-1,3-thiazol-2-yl}-2-[(1-methanesulfonyl-1H-pyrrol-3-yl)formamido]acetamide], for which, in assay [1], the DC50 is > 10 µM and the “BRM HiBit Degradation Maximum measured” value is given as “C (‘C’ = Maximum degradation <50%)”. Besides, in assay [2], the DC50 was > 10 µM and the Dmax was < 50%.

Take `CS(=O)(=O)n1ccc(C(=O)NCC(=O)Nc2nc(C3CCCN(C(=O)CCCCCCCOc4cccc5c4C(=O)N(C4CCC(=O)NC4=O)C5=O)C3)cs2)c1` (stereo not drawn) [Compound 148, N-{4-[1-(8-{[2-(2,6-dioxopiperidin-3-yl)-1,3-dioxo-2,3-dihydro-1H-isoindol-4-yl]oxy}octanoyl)piperidin-3-yl]-1,3-thiazol-2-yl}-2-[(1-methanesulfonyl-1H-pyrrol-3-yl)formamido]acetamide]: in assay [1], the DC50 was > 10 µM and the “BRM HiBit Degradation Maximum measured” value is on record as “C (‘C’ = Maximum degradation <50%)”. In assay [2], the DC50 was > 10 µM and the Dmax was < 50%.

Consider `CS(=O)(=O)n1ccc(C(=O)NCC(=O)Nc2nc(-c3cccc(-c4ccnc(C5(C(=O)NCC6CCN(CCOc7ccc8c(c7)C(=O)N(C7CCC(=O)NC7=O)C8=O)CC6)CC5)c4)c3)cs2)c1` (stereo not drawn) [Compound 149, N-[[1-(2-[[2-(2,6-dioxopiperidin-3-yl)-1,3-dioxoisoindol-5-yl]oxy]ethyl)piperidin-4-yl]methyl]-1-[4-[3-(2-[2-[(1-methanesulfonylpyrrol-3-yl)formamido]acetamido]-1,3-thiazol-4-yl)phenyl]pyridin-2-yl]cyclopropane-1-carboxamide], for which, in assay [1], the DC50 lay in the range of 0.1 to 1 µM and the “BRM HiBit Degradation Maximum measured” value is reported as “A (‘A’ = Maximum degradation >75%)”. In assay [2], the DC50 fell in the range of 0.1 to 1 µM and the Dmax is > 75%.

In the case of `CS(=O)(=O)n1ccc(C(=O)NCC(=O)Nc2nc(-c3cccc(-c4ccnc(C5(C(=O)N6CCN(CCOc7ccc8c(c7)C(=O)N(C7CCC(=O)NC7=O)C8=O)CC6)CC5)c4)c3)cs2)c1` (stereo not drawn) [Compound 150, N-(2-((4-(3-(2-(1-(4-(2-((2-(2,6-dioxopiperidin-3-yl)-1,3-dioxoisoindolin-5-yl)oxy)ethyl)piperazine-1-carbonyl)cyclopropyl)pyridin-4-yl)phenyl)thiazol-2-yl)amino)-2-oxoethyl)-1-(methylsulfonyl)-1H-pyrrole-3-carboxamide], in assay [1], the DC50 fell in the range of 0.1 to 1 µM; the “BRM HiBit Degradation Maximum measured” value is “B (‘B’ = Maximum degradation ≥50% and ≤75%)”. Moreover, in assay [2], the DC50 was 0.1 to 1 µM and the Dmax was > 75%.

Take `CS(=O)(=O)n1ccc(C(=O)NCC(=O)Nc2nc(-c3cccc(-c4ccnc(C5(C(=O)N6CCC7(CC6)CC(Oc6ccc8c(c6)C(=O)N(C6CCC(=O)NC6=O)C8=O)C7)CC5)c4)c3)cs2)c1` (stereo not drawn) [Compound 151, N-[4-(3-[2-[1-(2-[[2-(2,6-dioxopiperidin-3-yl)-1,3-dioxoisoindol-5-yl]oxy]-7-azaspiro[3.5]nonane-7-carbonyl)cyclopropyl]pyridin-4-yl]phenyl)-1,3-thiazol-2-yl]-2-[(1-methanesulfonylpyrrol-3-yl)formamido]acetamide]: in assay [1], the DC50 is > 10 µM and the “BRM HiBit Degradation Maximum measured” value is “C (‘C’ = Maximum degradation <50%)”. In assay [2], the DC50 was < 0.1 µM and the Dmax lay within 50 to 75%.

As for `CS(=O)(=O)n1ccc(C(=O)NCC(=O)Nc2nc(-c3cccc(-c4ccnc(C5(C(=O)NCCCC#Cc6cccc7c6C(=O)N(C6CCC(=O)NC6=O)C7=O)CC5)c4)c3)cs2)c1` (stereo not drawn) [Compound 152, N-[5-[2-(2,6-dioxopiperidin-3-yl)-1,3-dioxoisoindol-4-yl]pent-4-yn-1-yl]-1-[4-[3-(2-[2-[(1-methanesulfonylpyrrol-3-yl)formamido]acetamido]-1,3-thiazol-4-yl)phenyl]pyridin-2-yl]cyclopropane-1-carboxamide], in assay [1], the DC50 is > 10 µM and the “BRM HiBit Degradation Maximum measured” value is on record as “C (‘C’ = Maximum degradation <50%)”. Moreover, in assay [2], the DC50 is > 10 µM and the Dmax was < 50%.

On to `Cc1ncsc1-c1ccc(CNC(=O)[C@@H]2C[C@@H](O)CN2C(=O)[C@@H](NC(=O)CCCCCCC(=O)N(C)Cc2cc(-c3cccc(-c4csc(NC(=O)CNC(=O)c5ccn(S(C)(=O)=O)c5)n4)c3)ccn2)C(C)(C)C)cc1` [Compound 153, N-[(2S)-1-[(2S,4R)-4-hydroxy-2-([[4-(4-methyl-1,3-thiazol-5-yl)phenyl]methyl]carbamoyl)pyrrolidin-1-yl]-3,3-dimethyl-1-oxobutan-2-yl]-N′-([4-[3-(2-[2-[(1-methanesulfonylpyrrol-3-yl)formamido]acetamido]-1,3-thiazol-4-yl)phenyl]pyridin-2-yl]methyl)-N′-methyloctanediamide], for which, in assay [1], the DC50 was in the range of 0.1 to 1 µM; the “BRM HiBit Degradation Maximum measured” value was “B (‘B’ = Maximum degradation ≥50% and ≤75%)”. In assay [2], the DC50 was in the range of 0.1 to 1 µM and the Dmax was > 75%.

Turning to `Cc1ncsc1-c1ccc(CNC(=O)[C@@H]2C[C@@H](O)CN2C(=O)[C@@H](NC(=O)CCN2CC(C(=O)NCc3cccc(-c4cccc(-c5csc(NC(=O)CNC(=O)c6ccn(S(C)(=O)=O)c6)n5)c4)c3)C2)C(C)(C)C)cc1` [Compound 154, (2S,4R)-4-hydroxy-1-[(2S)-2-[3-[3-([[3-(2-[2-[(1-methanesulfonylpyrrol-3-yl)formamido]acetamido]-1,3-thiazol-4-yl)-[1,1-biphenyl]-3-yl]methyl]carbamoyl)azetidin-1-yl]propanamido]-3,3-dimethylbutanoyl]-N-[[4-(4-methyl-1,3-thiazol-5-yl)phenyl]methyl]pyrrolidine-2-carboxamide formate], in assay [1], the DC50 is > 10 µM and the “BRM HiBit Degradation Maximum measured” value is listed as “C (‘C’ = Maximum degradation <50%)”. The DC50 in assay [2] is > 10 µM.

(Values after patent US12662479B2 (Foghorn Therapeutics Inc., priority 2020, dated 2026).)
